Measurements taken from ChEMBL document CHEMBL5252555, “Antimicrobial Polyketides from the Marine-Derived Fungus Spiromastix sp. SCSIO F190” (J Nat Prod, 2023).
Activity calls are given as the source filed them.

Key:
Micrococcus luteus = experiment: Antibacterial activity against Micrococcus luteus ML01 assessed as inhibition of bacterial growth incubated for 18 hrs by broth microdilution method; assay type: functional
Staphylococcus aureus [1] = experiment: Antibacterial activity against Staphylococcus aureus 1862 assessed as inhibition of bacterial growth incubated for 18 hrs by broth microdilution method; assay type: functional
Enterococcus gallinarum = experiment: Antibacterial activity against Enterococcus gallinarum 5F52C assessed as inhibition of bacterial growth incubated for 18 hrs by broth microdilution method; assay type: functional
HepG2 = experiment: Cytotoxicity against human HepG2 cells incubated for 48 hrs by CCK-8 assay; assay type: functional, cell-based
Staphylococcus aureus [2] = experiment: Antibacterial activity against Staphylococcus aureus 16339 assessed as inhibition of bacterial growth incubated for 18 hrs by broth microdilution method; assay type: functional
Enterococcus faecalis [3] = experiment: Antibacterial activity against Enterococcus faecalis 36950 assessed as inhibition of bacterial growth incubated for 18 hrs by broth microdilution method; assay type: functional
Staphylococcus aureus [4] = experiment: Antibacterial activity against Staphylococcus aureus 745324 assessed as inhibition of bacterial growth incubated for 18 hrs by broth microdilution method; assay type: functional
Staphylococcus aureus [5] = experiment: Antibacterial activity against Staphylococcus aureus 718306 assessed as inhibition of bacterial growth incubated for 18 hrs by broth microdilution method; assay type: functional
Enterococcus faecium [6] = experiment: Antibacterial activity against Enterococcus faecium 36235 assessed as inhibition of bacterial growth incubated for 18 hrs by broth microdilution method; assay type: functional
A549 = experiment: Cytotoxicity against human A549 cells incubated for 48 hrs by CCK-8 assay; assay type: functional, cell-based
Enterococcus faecium [7] = experiment: Antibacterial activity against Enterococcus faecium 35682 assessed as inhibition of bacterial growth incubated for 18 hrs by broth microdilution method; assay type: functional
Enterococcus faecium [8] = experiment: Antibacterial activity against Enterococcus faecium 36711 assessed as inhibition of bacterial growth incubated for 18 hrs by broth microdilution method; assay type: functional
Enterococcus faecalis [9] = experiment: Antibacterial activity against Enterococcus faecalis ATCC 29212 assessed as inhibition of bacterial growth incubated for 18 hrs by broth microdilution method; assay type: functional
Staphylococcus aureus [10] = experiment: Antibacterial activity against Staphylococcus aureus 991 assessed as inhibition of bacterial growth incubated for 18 hrs by broth microdilution method; assay type: functional
HUVEC = experiment: Cytotoxicity against HUVEC cells incubated for 48 hrs by CCK-8 assay; assay type: toxicity, cell-based; settings: human
[11] = Cytotoxicity against human LX2 cells incubated for 48 hrs by CCK-8 assay; assay type: toxicity, cell-based; settings: lx-2, 48 h
Staphylococcus aureus [12] = experiment: Antibacterial activity against methicillin-resistant Staphylococcus aureus assessed as inhibition of bacterial growth incubated for 18 hrs by broth microdilution method; assay type: functional
Staphylococcus aureus [13] = experiment: Antibacterial activity against Staphylococcus aureus 16162 assessed as inhibition of bacterial growth incubated for 18 hrs by broth microdilution method; assay type: functional
Staphylococcus aureus [14] = experiment: Antibacterial activity against Staphylococcus aureus 669 assessed as inhibition of bacterial growth incubated for 18 hrs by broth microdilution method; assay type: functional
Staphylococcus simulans = experiment: Antibacterial activity against Staphylococcus simulans AKA1 assessed as inhibition of bacterial growth incubated for 18 hrs by broth microdilution method; assay type: functional
RBE = experiment: Cytotoxicity against human RBE cells incubated for 48 hrs by CCK-8 assay; assay type: functional, cell-based
Staphylococcus aureus [15] = experiment: Antibacterial activity against Staphylococcus aureus 3090 assessed as inhibition of bacterial growth incubated for 18 hrs by broth microdilution method; assay type: functional
HeLa = experiment: Cytotoxicity against human HeLa cells incubated for 48 hrs by CCK-8 assay; assay type: functional, cell-based
Staphylococcus aureus [16] = experiment: Antibacterial activity against Staphylococcus aureus GDE4P037P assessed as inhibition of bacterial growth incubated for 18 hrs by broth microdilution method; assay type: functional
Staphylococcus aureus [17] = experiment: Antibacterial activity against Staphylococcus aureus 6917 assessed as inhibition of bacterial growth incubated for 18 hrs by broth microdilution method; assay type: functional
HCT-116 = experiment: Cytotoxicity against human HCT-116 cells incubated for 48 hrs by CCK-8 assay; assay type: functional, cell-based
Staphylococcus aureus [18] = experiment: Antibacterial activity against Staphylococcus aureus ATCC 29213 assessed as inhibition of bacterial growth incubated for 18 hrs by broth microdilution method; assay type: functional
Bacillus subtilis = experiment: Antibacterial activity against Bacillus subtilis BS01 assessed as inhibition of bacterial growth incubated for 18 hrs by broth microdilution method; assay type: functional
MCF7 = experiment: Cytotoxicity against human MCF7 cells incubated for 48 hrs by CCK-8 assay; assay type: functional, cell-based

CCCc1c(Cl)c(OC)c(Cl)c(Oc2c(Cl)c(O)c(Cl)c3c2C(=O)O[C@H](C)C3)c1OC
4 µg/mL: MIC (Staphylococcus aureus [1]) | MIC (Enterococcus gallinarum) | MIC (Staphylococcus aureus [2]) | MIC (Enterococcus faecalis [3]) | MIC (Staphylococcus aureus [4]) | MIC (Staphylococcus aureus [10]) | MIC (Staphylococcus aureus [12]) | MIC (Staphylococcus aureus [13]) | MIC (Staphylococcus aureus [14]) | MIC (Staphylococcus simulans) | MIC (Staphylococcus aureus [15]) | MIC (Staphylococcus aureus [18])
16 µg/mL: MIC (Enterococcus faecium [6])
2 µg/mL: MIC (Micrococcus luteus) | MIC (Bacillus subtilis)
32 µg/mL: MIC (Enterococcus faecium [7])
inactive: Activity (HepG2) | Activity (A549) | Activity (RBE) | Activity (HeLa) | Activity (HCT-116) | Activity (MCF7)
Non-Toxic: Activity (HUVEC) | Activity [11]
8 µg/mL: MIC (Staphylococcus aureus [5]) | MIC (Enterococcus faecium [8]) | MIC (Enterococcus faecalis [9]) | MIC (Staphylococcus aureus [16]) | MIC (Staphylococcus aureus [17])
